Laboratory results as given in patent US10844077B2, “Thiazolyl-containing compounds for treating proliferative diseases” (Dana-Farber Cancer Institute, Inc., priority 2014, dated 2020).
Read-outs that look alike come from different tables or passages of the source.

Legend:
Assay type in all cases: binding
broad panel of kinases [1] = target: broad panel of kinases (Homo sapiens, UniProt O95835); conditions: LATS1; 1 μM
broad panel of kinases [2] = target: broad panel of kinases (Homo sapiens, UniProt P00533, G719C); conditions: EGFR(G719C); 1 μM
Sequence of broad panel of kinases (Homo sapiens, UniProt P00533, G719C) (P00533 25-1210 G719C limits assumed): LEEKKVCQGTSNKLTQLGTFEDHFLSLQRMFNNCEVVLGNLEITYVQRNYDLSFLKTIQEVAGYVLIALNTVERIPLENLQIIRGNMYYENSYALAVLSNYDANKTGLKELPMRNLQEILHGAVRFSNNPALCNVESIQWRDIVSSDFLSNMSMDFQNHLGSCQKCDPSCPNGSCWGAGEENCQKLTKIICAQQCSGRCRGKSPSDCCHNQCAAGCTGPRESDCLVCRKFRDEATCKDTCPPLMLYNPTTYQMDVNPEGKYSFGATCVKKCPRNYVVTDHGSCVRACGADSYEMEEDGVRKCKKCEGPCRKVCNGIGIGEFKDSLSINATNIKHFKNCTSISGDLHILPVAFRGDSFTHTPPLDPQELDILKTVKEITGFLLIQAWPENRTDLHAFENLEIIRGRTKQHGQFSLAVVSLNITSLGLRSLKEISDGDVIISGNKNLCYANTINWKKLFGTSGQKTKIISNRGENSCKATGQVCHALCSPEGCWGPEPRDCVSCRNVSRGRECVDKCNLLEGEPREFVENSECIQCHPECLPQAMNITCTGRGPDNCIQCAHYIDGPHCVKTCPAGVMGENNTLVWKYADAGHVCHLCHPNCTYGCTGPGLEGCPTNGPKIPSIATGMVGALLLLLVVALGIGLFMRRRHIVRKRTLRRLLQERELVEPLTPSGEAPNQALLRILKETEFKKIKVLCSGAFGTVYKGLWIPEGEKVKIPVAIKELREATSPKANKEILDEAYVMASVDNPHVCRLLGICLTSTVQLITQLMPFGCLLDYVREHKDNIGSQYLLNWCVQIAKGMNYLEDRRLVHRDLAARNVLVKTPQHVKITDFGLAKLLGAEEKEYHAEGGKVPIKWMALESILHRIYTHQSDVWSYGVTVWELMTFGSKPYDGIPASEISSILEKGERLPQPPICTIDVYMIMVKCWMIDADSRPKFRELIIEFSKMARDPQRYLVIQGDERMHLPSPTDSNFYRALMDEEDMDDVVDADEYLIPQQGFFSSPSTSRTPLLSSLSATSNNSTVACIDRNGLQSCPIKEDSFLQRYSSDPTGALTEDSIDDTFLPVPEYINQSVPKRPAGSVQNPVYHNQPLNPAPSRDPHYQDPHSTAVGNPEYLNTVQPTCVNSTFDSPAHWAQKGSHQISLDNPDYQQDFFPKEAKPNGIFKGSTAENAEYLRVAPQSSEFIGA

broad panel of kinases [3] = target: broad panel of kinases (Homo sapiens, UniProt P10721); conditions: 1 μM
Sequence of broad panel of kinases (Homo sapiens, UniProt P10721) (P10721 26-976 limits assumed): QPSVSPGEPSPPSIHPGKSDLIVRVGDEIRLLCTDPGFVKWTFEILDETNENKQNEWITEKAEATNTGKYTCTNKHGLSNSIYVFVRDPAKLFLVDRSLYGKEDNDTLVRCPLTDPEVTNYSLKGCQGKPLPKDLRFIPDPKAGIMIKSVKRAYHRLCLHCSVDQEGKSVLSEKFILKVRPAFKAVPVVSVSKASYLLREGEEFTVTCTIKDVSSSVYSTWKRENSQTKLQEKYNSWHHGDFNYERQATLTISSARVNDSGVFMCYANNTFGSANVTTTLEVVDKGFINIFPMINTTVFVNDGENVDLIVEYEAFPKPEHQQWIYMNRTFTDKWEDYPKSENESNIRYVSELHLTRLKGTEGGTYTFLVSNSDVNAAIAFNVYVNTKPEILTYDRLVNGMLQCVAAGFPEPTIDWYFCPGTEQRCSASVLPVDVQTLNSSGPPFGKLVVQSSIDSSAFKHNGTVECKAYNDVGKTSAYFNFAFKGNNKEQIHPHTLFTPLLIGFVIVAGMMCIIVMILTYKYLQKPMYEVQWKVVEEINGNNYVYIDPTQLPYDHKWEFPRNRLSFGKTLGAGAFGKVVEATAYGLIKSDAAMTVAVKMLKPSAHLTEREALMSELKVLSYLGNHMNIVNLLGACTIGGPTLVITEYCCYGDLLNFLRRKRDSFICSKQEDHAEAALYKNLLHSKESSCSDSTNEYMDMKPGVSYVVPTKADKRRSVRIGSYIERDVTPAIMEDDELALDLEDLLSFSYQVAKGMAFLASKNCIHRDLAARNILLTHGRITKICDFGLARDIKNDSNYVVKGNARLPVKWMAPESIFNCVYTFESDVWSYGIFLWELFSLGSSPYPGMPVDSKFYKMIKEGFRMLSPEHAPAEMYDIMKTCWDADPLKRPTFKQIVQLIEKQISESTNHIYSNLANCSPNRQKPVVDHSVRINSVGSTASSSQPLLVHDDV

broad panel of kinases [4] = target: broad panel of kinases (Homo sapiens, UniProt P37173); conditions: TGFBR2; 1 μM
Sequence of broad panel of kinases (Homo sapiens, UniProt P37173) (P37173 23-567 limits assumed): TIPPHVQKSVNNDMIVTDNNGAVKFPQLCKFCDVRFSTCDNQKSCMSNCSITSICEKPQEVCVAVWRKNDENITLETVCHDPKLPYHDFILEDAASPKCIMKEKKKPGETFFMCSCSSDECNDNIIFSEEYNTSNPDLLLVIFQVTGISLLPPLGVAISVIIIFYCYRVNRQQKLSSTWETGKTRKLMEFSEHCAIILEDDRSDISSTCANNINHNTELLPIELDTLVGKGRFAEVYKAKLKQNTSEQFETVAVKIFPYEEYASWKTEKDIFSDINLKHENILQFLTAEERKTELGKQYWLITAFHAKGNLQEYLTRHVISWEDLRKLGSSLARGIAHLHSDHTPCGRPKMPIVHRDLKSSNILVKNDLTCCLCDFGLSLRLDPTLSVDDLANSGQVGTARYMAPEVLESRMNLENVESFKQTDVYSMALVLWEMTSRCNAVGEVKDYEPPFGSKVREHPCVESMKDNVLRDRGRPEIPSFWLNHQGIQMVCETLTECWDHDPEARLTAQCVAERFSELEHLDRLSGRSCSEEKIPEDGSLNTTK

broad panel of kinases [5] = target: broad panel of kinases (Homo sapiens, UniProt P49840); conditions: GSK3A; 1 μM
Sequence of broad panel of kinases (Homo sapiens, UniProt P49840) (P49840 2-483 limits assumed): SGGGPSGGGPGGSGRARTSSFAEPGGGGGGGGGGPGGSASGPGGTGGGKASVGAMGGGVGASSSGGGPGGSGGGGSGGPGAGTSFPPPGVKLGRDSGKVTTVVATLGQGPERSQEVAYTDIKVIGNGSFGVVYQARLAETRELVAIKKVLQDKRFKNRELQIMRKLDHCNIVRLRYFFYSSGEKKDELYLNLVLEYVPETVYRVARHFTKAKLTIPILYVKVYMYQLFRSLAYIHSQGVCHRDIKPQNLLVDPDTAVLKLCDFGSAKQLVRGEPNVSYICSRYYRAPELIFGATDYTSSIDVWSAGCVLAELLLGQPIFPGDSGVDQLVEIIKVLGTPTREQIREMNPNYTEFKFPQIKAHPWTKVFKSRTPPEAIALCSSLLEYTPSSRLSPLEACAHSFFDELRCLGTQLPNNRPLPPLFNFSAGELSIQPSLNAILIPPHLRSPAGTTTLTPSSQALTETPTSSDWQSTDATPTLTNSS

broad panel of kinases [6] = target: broad panel of kinases (Homo sapiens, UniProt Q14680); conditions: MELK; 1 μM
broad panel of kinases [7] = target: broad panel of kinases (Homo sapiens, UniProt O43683); conditions: BUB1; 1 μM
broad panel of kinases [8] = target: broad panel of kinases (Homo sapiens, UniProt P29320); conditions: EPHA3; 1 μM
broad panel of kinases [9] = target: broad panel of kinases (Homo sapiens, UniProt Q13233); conditions: MAP3K1; 1 μM
broad panel of kinases [10] = target: broad panel of kinases (Homo sapiens, UniProt Q9NRP7); conditions: STK36; 1 μM
broad panel of kinases [11] = target: broad panel of kinases (Homo sapiens, UniProt P36888, K663Q); conditions: FLT3(K663Q); 1 μM
broad panel of kinases [12] = target: broad panel of kinases (Homo sapiens, UniProt Q96PY6); conditions: NEK1; 1 μM
broad panel of kinases [13] = target: broad panel of kinases (Homo sapiens, UniProt P21127); conditions: CDC2L1; 1 μM
broad panel of kinases [14] = target: broad panel of kinases (Homo sapiens, UniProt P19784); conditions: CSNK2A2; 1 μM
broad panel of kinases [15] = target: broad panel of kinases (Homo sapiens, UniProt Q92772); conditions: CDKL2; 1 μM
broad panel of kinases [16] = target: broad panel of kinases (Homo sapiens, UniProt O75116); conditions: ROCK2; 1 μM
broad panel of kinases [17] = target: broad panel of kinases (Homo sapiens, UniProt P06241); conditions: FYN; 1 μM
Sequence of broad panel of kinases (Homo sapiens, UniProt P06241) (P06241 2-537 limits assumed): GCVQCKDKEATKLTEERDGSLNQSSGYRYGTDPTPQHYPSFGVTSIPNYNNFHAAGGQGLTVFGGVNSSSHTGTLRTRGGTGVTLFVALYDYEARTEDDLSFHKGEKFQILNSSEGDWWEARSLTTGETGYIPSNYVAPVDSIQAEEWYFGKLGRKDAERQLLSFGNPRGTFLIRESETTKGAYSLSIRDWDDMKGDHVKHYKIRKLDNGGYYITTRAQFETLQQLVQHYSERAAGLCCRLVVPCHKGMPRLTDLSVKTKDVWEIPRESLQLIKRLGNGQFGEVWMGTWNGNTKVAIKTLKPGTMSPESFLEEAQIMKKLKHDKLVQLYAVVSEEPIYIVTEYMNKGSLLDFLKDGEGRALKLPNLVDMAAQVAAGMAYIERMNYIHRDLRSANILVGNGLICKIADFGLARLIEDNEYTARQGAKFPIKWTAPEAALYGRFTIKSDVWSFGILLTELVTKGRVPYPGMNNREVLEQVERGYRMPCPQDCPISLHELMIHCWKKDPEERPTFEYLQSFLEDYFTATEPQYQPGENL

broad panel of kinases [18] = target: broad panel of kinases (Homo sapiens, UniProt P15056, V600E); conditions: BRAF(V600E); 1 μM
Sequence of broad panel of kinases (Homo sapiens, UniProt P15056, V600E) (P15056 2-766 V600E limits assumed): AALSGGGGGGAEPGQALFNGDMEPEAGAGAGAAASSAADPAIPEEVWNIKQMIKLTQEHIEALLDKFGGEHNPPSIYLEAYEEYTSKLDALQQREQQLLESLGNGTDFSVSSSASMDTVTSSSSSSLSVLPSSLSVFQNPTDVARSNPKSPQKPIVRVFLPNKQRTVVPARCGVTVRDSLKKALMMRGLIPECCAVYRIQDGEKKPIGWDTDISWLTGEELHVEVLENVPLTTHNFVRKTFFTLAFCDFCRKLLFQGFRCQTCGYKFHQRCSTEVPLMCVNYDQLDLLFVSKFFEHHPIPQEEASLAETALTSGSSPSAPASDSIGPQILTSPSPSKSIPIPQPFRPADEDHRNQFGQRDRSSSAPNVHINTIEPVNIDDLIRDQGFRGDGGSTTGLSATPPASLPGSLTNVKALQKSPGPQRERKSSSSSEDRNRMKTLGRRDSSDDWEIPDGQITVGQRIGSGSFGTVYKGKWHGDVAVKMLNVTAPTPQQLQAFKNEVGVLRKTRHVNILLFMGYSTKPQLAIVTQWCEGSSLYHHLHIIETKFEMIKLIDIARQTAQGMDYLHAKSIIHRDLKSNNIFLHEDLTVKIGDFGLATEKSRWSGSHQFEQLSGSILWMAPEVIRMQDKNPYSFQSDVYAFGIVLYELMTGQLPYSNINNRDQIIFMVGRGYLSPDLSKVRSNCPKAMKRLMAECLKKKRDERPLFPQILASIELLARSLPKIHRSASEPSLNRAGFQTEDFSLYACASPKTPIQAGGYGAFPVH

broad panel of kinases [19] = target: broad panel of kinases (Homo sapiens, UniProt Q12851); conditions: MAP4K2; 1 μM
broad panel of kinases [20] = target: broad panel of kinases (Homo sapiens, UniProt P53667); conditions: LIMK1; 1 μM
broad panel of kinases [21] = target: broad panel of kinases (Homo sapiens, UniProt Q15208); conditions: NDR1; 1 μM
Sequence of broad panel of kinases (Homo sapiens, UniProt Q15208) (Q15208 2-465 limits assumed): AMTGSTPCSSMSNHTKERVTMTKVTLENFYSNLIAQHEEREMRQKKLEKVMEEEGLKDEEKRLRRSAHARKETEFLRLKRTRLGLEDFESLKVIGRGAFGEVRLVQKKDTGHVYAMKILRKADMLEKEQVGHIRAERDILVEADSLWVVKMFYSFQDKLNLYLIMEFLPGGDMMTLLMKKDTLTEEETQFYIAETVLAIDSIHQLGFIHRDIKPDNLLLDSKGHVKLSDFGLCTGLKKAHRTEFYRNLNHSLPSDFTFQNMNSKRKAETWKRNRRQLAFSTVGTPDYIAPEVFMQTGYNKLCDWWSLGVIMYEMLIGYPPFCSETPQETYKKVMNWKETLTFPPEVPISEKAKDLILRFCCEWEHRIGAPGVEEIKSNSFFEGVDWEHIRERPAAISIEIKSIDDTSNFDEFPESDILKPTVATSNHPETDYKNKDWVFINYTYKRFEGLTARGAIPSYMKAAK

broad panel of kinases [22] = target: broad panel of kinases (Homo sapiens, UniProt P42680); conditions: TEC; 1 μM
broad panel of kinases [23] = target: broad panel of kinases (Homo sapiens, UniProt O14920); conditions: IKK-beta; 1 μM
broad panel of kinases [24] = target: broad panel of kinases (Homo sapiens, UniProt Q02156); conditions: PRKCE; 1 μM
broad panel of kinases [25] = target: broad panel of kinases (Homo sapiens, UniProt Q9UM73, C1156Y); conditions: ALK(C1156Y); 1 μM
broad panel of kinases [26] = target: broad panel of kinases (Homo sapiens, UniProt P49761); conditions: CLK3; 1 μM
broad panel of kinases [27] = target: broad panel of kinases (Homo sapiens, UniProt P33981); conditions: TTK; 1 μM
broad panel of kinases [28] = target: broad panel of kinases (Homo sapiens, UniProt Q9H4A3); conditions: WNK1; 1 μM
broad panel of kinases [29] = target: broad panel of kinases (Homo sapiens, UniProt P35968); conditions: VEGFR2; 1 μM
broad panel of kinases [30] = target: broad panel of kinases (Homo sapiens, UniProt Q04759); conditions: PRKCQ; 1 μM
broad panel of kinases [31] = target: broad panel of kinases (Homo sapiens, UniProt Q96SB4); conditions: SRPK1; 1 μM
broad panel of kinases [32] = target: broad panel of kinases (Homo sapiens, UniProt P00519, F317L); conditions: 1 μM
broad panel of kinases [33] = target: broad panel of kinases (Homo sapiens, UniProt P53671); conditions: LIMK2; 1 μM
broad panel of kinases [34] = target: broad panel of kinases (Homo sapiens, UniProt Q5S007, G2019S); conditions: LRRK2(G2019S); 1 μM
broad panel of kinases [35] = target: broad panel of kinases (Homo sapiens, UniProt P42336, M1043I); conditions: PIK3CA(M1043I); 1 μM
broad panel of kinases [36] = target: broad panel of kinases (Homo sapiens, UniProt O14757); conditions: CHEK1; 1 μM

SMILES | percent of control binding remaining (lower = stronger binding) (broad panel of kinases [1]) | percent of control binding remaining (lower = stronger binding) (broad panel of kinases [2]) | percent of control binding remaining (lower = stronger binding) (broad panel of kinases [3]; KIT-autoinhibited) | percent of control binding remaining (lower = stronger binding) (broad panel of kinases [3]; KIT) | percent of control binding remaining (lower = stronger binding) (broad panel of kinases [4]) | percent of control binding remaining (lower = stronger binding) (broad panel of kinases [5]) | percent of control binding remaining (lower = stronger binding) (broad panel of kinases [6]) | percent of control binding remaining (lower = stronger binding) (broad panel of kinases [7]) | percent of control binding remaining (lower = stronger binding) (broad panel of kinases [8]) | percent of control binding remaining (lower = stronger binding) (broad panel of kinases [9]) | percent of control binding remaining (lower = stronger binding) (broad panel of kinases [10]) | percent of control binding remaining (lower = stronger binding) (broad panel of kinases [11]) | percent of control binding remaining (lower = stronger binding) (broad panel of kinases [12]) | percent of control binding remaining (lower = stronger binding) (broad panel of kinases [13]) | percent of control binding remaining (lower = stronger binding) (broad panel of kinases [14]) | percent of control binding remaining (lower = stronger binding) (broad panel of kinases [15]) | percent of control binding remaining (lower = stronger binding) (broad panel of kinases [16]) | percent of control binding remaining (lower = stronger binding) (broad panel of kinases [17]) | percent of control binding remaining (lower = stronger binding) (broad panel of kinases [18]) | percent of control binding remaining (lower = stronger binding) (broad panel of kinases [19]) | also measured
C=CC(=O)N1CC[C@H](Nc2nc(CN3CCOCC3)cc(Nc3ncc(C(=O)Nc4c(C)cccc4C)s3)n2)C1 [Example I-2] | 100% | 23% | 1.8% | 0% | 94% | 100% | 84% | 85% | 47% | 70% | 3.5% | 96% | 88% | 88% | 57% | 88% | 95% | 0.3% | 1.6% | 87% | percent of control binding remaining (lower = stronger binding) (broad panel of kinases [20]): 52%; percent of control binding remaining (lower = stronger binding) (broad panel of kinases [21]): 63%; percent of control binding remaining (lower = stronger binding) (broad panel of kinases [22]): 3.6%; percent of control binding remaining (lower = stronger binding) (broad panel of kinases [23]): 75%; percent of control binding remaining (lower = stronger binding) (broad panel of kinases [24]): 100%; percent of control binding remaining (lower = stronger binding) (broad panel of kinases [25]): 94%; percent of control binding remaining (lower = stronger binding) (broad panel of kinases [26]): 100%; percent of control binding remaining (lower = stronger binding) (broad panel of kinases [27]): 100%; percent of control binding remaining (lower = stronger binding) (broad panel of kinases [28]): 100%; percent of control binding remaining (lower = stronger binding) (broad panel of kinases [29]): 100%; percent of control binding remaining (lower = stronger binding) (broad panel of kinases [30]): 94%; percent of control binding remaining (lower = stronger binding) (broad panel of kinases [31]): 91%; percent of control binding remaining (lower = stronger binding) (broad panel of kinases [32]; ABL1(F317L)-nonphosphorylated): 0%; percent of control binding remaining (lower = stronger binding) (broad panel of kinases [32]; ABL1(F317L)-phosphorylated): 0.5%; percent of control binding remaining (lower = stronger binding) (broad panel of kinases [33]): 51%; percent of control binding remaining (lower = stronger binding) (broad panel of kinases [34]): 100%; percent of control binding remaining (lower = stronger binding) (broad panel of kinases [35]): 96%; percent of control binding remaining (lower = stronger binding) (broad panel of kinases [36]): 88%
C=CC(=O)N1CC[C@H](Nc2nccc(Nc3ncc(C(=O)Nc4c(C)cccc4C)s3)n2)C1 [Example I-3] | 93% | 14% | 2.6% | 0% | 100% | 97% | 82% | 68% | 49% | 80% | 25% | 100% | 85% | 78% | 70% | 78% | 75% | 0.5% | 2.1% | 91% | percent of control binding remaining (lower = stronger binding) (broad panel of kinases [20]): 25%; percent of control binding remaining (lower = stronger binding) (broad panel of kinases [21]): 74%; percent of control binding remaining (lower = stronger binding) (broad panel of kinases [22]): 3.3%; percent of control binding remaining (lower = stronger binding) (broad panel of kinases [23]): 86%; percent of control binding remaining (lower = stronger binding) (broad panel of kinases [24]): 100%; percent of control binding remaining (lower = stronger binding) (broad panel of kinases [25]): 84%; percent of control binding remaining (lower = stronger binding) (broad panel of kinases [26]): 95%; percent of control binding remaining (lower = stronger binding) (broad panel of kinases [27]): 78%; percent of control binding remaining (lower = stronger binding) (broad panel of kinases [28]): 95%; percent of control binding remaining (lower = stronger binding) (broad panel of kinases [29]): 100%; percent of control binding remaining (lower = stronger binding) (broad panel of kinases [30]): 98%; percent of control binding remaining (lower = stronger binding) (broad panel of kinases [31]): 96%; % change compared to control (broad panel of kinases [32]; ABL1(F317L)-nonphosphorylated): 0.5%; % change compared to control (broad panel of kinases [32]; ABL1(F317L)-phosphorylated): 2%; percent of control binding remaining (lower = stronger binding) (broad panel of kinases [33]): 65%; percent of control binding remaining (lower = stronger binding) (broad panel of kinases [34]): 99%; percent of control binding remaining (lower = stronger binding) (broad panel of kinases [35]): 100%; percent of control binding remaining (lower = stronger binding) (broad panel of kinases [36]): 84%
